Assay results taken from patent US5643872A, “Cyclic anti-aggregatory peptides” (SmithKline Beecham Corporation, priority 1994, dated 1997).
Read-outs that look alike come from different tables or passages of the source. Square brackets hold non-standard residues; d marks the D form. Peptide text beside a SMILES is read from it.

What was measured:
dog platelets = dog platelets (Canis lupus familiaris, UniProt A0A8I3N5G5+A0A8I3PMU9); details: read-out: IC50 for the aggregation of dog platelets stimulated by ADP; agonist ADP; peptides added 3 min prior to the agonist; light transmittance 5 min after agonist
dog platelets, sequence (A0A8I3N5G5 1-1047): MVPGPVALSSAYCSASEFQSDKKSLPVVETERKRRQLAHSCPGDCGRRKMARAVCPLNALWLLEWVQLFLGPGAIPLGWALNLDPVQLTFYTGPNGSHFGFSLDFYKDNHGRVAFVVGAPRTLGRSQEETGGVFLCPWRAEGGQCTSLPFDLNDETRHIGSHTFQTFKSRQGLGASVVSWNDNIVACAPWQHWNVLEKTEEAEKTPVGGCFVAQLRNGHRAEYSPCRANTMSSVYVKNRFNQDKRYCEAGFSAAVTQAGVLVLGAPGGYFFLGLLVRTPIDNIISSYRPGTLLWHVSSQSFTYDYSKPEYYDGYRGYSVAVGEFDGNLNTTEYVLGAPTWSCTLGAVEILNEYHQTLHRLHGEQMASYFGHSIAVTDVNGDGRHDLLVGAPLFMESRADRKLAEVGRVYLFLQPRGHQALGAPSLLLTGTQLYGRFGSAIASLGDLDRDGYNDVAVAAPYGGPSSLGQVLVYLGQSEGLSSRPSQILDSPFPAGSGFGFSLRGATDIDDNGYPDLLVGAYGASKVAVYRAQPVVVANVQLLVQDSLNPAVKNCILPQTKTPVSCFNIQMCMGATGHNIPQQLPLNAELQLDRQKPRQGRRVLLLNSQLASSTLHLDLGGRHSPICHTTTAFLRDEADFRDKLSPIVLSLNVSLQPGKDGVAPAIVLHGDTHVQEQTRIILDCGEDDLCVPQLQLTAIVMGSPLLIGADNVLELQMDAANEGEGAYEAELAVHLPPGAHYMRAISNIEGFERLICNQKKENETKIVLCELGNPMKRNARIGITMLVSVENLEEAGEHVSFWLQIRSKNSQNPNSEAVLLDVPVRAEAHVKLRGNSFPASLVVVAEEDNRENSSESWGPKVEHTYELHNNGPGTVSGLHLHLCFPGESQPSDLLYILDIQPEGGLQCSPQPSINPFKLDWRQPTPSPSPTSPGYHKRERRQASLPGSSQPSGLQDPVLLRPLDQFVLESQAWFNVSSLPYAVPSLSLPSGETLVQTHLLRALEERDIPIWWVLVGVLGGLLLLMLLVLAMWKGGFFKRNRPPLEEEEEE
dog platelets, sequence (A0A8I3PMU9 1-919): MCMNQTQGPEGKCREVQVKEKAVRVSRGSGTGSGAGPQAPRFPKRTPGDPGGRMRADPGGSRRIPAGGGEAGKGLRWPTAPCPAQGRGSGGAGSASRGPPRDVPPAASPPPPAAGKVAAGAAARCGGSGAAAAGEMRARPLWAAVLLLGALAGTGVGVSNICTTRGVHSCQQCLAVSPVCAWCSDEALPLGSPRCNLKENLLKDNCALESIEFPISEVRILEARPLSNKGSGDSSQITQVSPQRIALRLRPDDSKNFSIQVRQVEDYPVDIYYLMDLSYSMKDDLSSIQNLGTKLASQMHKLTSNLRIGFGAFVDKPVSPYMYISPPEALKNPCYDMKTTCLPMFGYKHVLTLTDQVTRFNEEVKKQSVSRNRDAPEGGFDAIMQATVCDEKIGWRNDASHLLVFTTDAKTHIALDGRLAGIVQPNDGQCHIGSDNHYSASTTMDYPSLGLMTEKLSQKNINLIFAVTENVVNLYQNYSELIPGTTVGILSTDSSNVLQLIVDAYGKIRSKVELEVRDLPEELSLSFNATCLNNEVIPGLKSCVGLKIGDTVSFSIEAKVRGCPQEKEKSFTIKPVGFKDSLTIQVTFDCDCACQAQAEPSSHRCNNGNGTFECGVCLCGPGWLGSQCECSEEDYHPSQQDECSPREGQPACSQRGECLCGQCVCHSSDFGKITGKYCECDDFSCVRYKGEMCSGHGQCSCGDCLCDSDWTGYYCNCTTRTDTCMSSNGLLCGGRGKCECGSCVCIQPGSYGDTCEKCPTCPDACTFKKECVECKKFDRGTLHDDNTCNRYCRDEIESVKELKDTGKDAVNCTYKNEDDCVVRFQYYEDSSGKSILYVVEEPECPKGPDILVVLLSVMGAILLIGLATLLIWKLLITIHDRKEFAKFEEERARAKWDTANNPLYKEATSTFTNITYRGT
Protocol: Inhibition of Platelet Aggregation
Blood was collected (citrated to prevent coagulation) from, naive, adult mongrel dogs. Platelet rich plasma, PRP, was prepared by centrifugation at 150×g for 10 min at room temperature. Washed platelets were prepared by centrifuging PRP at 800×g for 10 min. The cell pellet thus obtained was washed twice in Tyrode's buffer (pH 6.5) without Ca^++ and resuspended in Tyrode's buffer (pH 7.4) containing 1.8 mM Ca^++ at […]. Peptides were added 3 min prior to the agonist in all assays of platelet aggregation. Final agonist concentrations were 0.1 unit/ml thrombin and […] (Sigma). Aggregation was monitored in a Chrono-Log Lumi-Aggregometer. Light transmittance 5 min after addition of the agonist was used to calculate percent aggregation according to the formula % aggregation=[(90-CR)[…](90-10)]×100, where CR is the chart reading, 90 is the baseline, and 10 is the PRP blank reading. IC50 's were determined by plotting [% inhibition of aggregation] vs. [concentration of peptide]. Peptides were assayed at […] and diluted sequentially by a factor of 2 to establish a suitable dose response curve.

[1] = amide bond, DMF
[2] = the molecule shown is the open-chain precursor, 20-membered ring, BOP/DIEA, resin, with chain assembly

Work on `N=C(N)NCCC[C@@H]1NC(=O)CNC(=O)[C@@H]2CCCN2C(=O)[C@H](CO)NC(=O)[C@H](CC(=O)O)NC(=O)CNC1=O` [Example 25, cyclo-(1,6)-Gly-Arg-Gly-Asp-Ser-Pro] yielded an IC50 (dog platelets) greater than 200 µM.

In the case of `COc1cc(C)c(S(=O)(=O)NC(=N)NCCC[C@@H]2NC(=O)[C@H](Cc3ccccc3)NC(=O)[C@H](CC(=O)OC(C)(C)C)NC(=O)CNC(=O)[C@H](CCCNC(=N)NS(=O)(=O)c3c(C)cc(OC)c(C)c3C)NC(=O)[C@H](Cc3ccccc3)NC(=O)[C@H](CC(=O)OC(C)(C)C)NC(=O)CNC2=O)c(C)c1C`, the ring closure, crude yield ([1]; from H-Asp(OtBu)-Phe-Arg(Mtr)-Gly-Asp(OtBu)-Phe-Arg(Mtr)-Gly-OH, 24-membered ring, PPA/NMM, 0.4 mM) is reported as 100%.

In the case of `COc1cc(C)c(S(=O)(=O)NC(=N)NCCC[C@@H]2NC(=O)[C@H](C)NC(=O)[C@@H](COCc3ccccc3)NC(=O)[C@H](CC(=O)OC(C)(C)C)NC(=O)CNC2=O)c(C)c1C` [cyclo-(1,5)-Ala-Arg(Mtr)-Gly-Asp(O-t-Bu)-D-Ser(Bzl)], the ring closure, crude yield ([1]; from H-Asp(OtBu)-dSer(Bzl)-Ala-Arg(Mtr)-Gly-OH, 15-membered ring, PPA/NMM, 0.4 mM) is reported as 67%.

For `COc1cc(C)c(S(=O)(=O)NC(=N)NCCC[C@@H]2NC(=O)[C@@H]3CCCN3C(=O)[C@@H](Cc3ccccc3)NC(=O)[C@H](CC(=O)OC(C)(C)C)NC(=O)CNC(=O)[C@H](CCCNC(=N)NS(=O)(=O)c3c(C)cc(OC)c(C)c3C)NC(=O)[C@@H]3CCCN3C(=O)[C@@H](Cc3ccccc3)NC(=O)[C@H](CC(=O)OC(C)(C)C)NC(=O)CNC2=O)c(C)c1C`, the ring closure, crude yield ([1]; from H-Asp(OtBu)-dPhe-Pro-Arg(Mtr)-Gly-Asp(OtBu)-dPhe-Pro-Arg(Mtr)-Gly-OH, 30-membered ring, PPA/NMM, 0.4 mM) was 100%.

Compound `COc1cc(C)c(S(=O)(=O)NC(=N)NCCC[C@@H]2NC(=O)CNC(=O)[C@@H]3CCCN3C(=O)[C@H](COCc3ccccc3)NC(=O)[C@H](CC(=O)OC(C)(C)C)NC(=O)CNC2=O)c(C)c1C` [cyclo-(1,6)-Gly-Arg-Gly-Asp-Ser-Pro] has a ring closure, crude yield ([1]; from H-Asp(OtBu)-Ser(Bzl)-Pro-Gly-Arg(Mtr)-Gly-OH, 18-membered ring, PPA/NMM, 0.4 mM) of 88%.

For `N=C(N)NCCC[C@@H]1NC(=O)[C@@H]2CCCN2C(=O)[C@@H](Cc2ccccc2)NC(=O)[C@H](CC(=O)O)NC(=O)CNC(=O)[C@H](CCCNC(=N)N)NC(=O)[C@@H]2CCCN2C(=O)[C@@H](Cc2ccccc2)NC(=O)[C@H](CC(=O)O)NC(=O)CNC1=O` [Example 22, cyclo-(1,10)-Pro-Arg-Gly-Asp-D-Phe-Pro-Arg-Gly-Asp-D-Phe] (cyclo(RGD[dF]PRGD[dF]P)), the IC50 (dog platelets) was greater than 200 µM.

In the case of “H-Gly-Arg(Tos)-Gly-Asp(Bzl)-Ser(Bzl)-Glu-BHA-resin”, the ring closure, crude yield [1, 2] is reported as 94%.

For “H-Gly-MeArg(Tos)-Gly-Asp(Bzl)-Ser(Bzl)-Glu-BHA-resin”, the ring closure, crude yield [1, 2] was 100%.

Work on `COc1cc(C)c(S(=O)(=O)NC(=N)NCCC[C@@H]2NC(=O)CNC(=O)[C@@H]3CCCN3C(=O)[C@H]3CCCN3C(=O)[C@H](CC(=O)OC(C)(C)C)NC(=O)CNC2=O)c(C)c1C` [cyclo-(1,6)-Pro-Gly-Arg(Mtr)-Gly-Asp(O-t-Bu)-D-Pro] yielded a ring closure, crude yield ([1]; from H-Asp(OtBu)-dPro-Pro-Gly-Arg(Mtr)-Gly-OH, 18-membered ring, PPA/NMM, 0.37 mM) of 31%.

`N=C(N)NCCC[C@@H]1NC(=O)CNC(=O)[C@@H]2CCCN2C(=O)[C@H]2CCCN2C(=O)[C@H](CC(=O)O)NC(=O)CNC1=O` [Example 24, cyclo-(1,6)-Pro-Gly-Arg-Gly-Asp-D-Pro] (cyclo(RGD[dP]PG)) showed an IC50 (dog platelets) greater than 200 µM.

For `COc1cc(C)c(S(=O)(=O)NC(=N)NCCC[C@@H]2NC(=O)[C@@H]3CCCN3C(=O)CNC(=O)[C@H]3CCCN3C(=O)[C@H](CC(=O)OC(C)(C)C)NC(=O)CNC2=O)c(C)c1C` [cyclo-(1,6)-Gly-Pro-Arg-Gly-Asp-D-Pro], the ring closure, crude yield ([1]; from H-Asp(OtBu)-dPro-Gly-Pro-Arg(Mtr)-Gly-OH, 18-membered ring, PPA/NMM, 0.4 mM) was 42%.

For `Cc1ccc(S(=O)(=O)NC(=N)NCCC[C@@H]2NC(=O)[C@@H]3CCCN3C(=O)[C@H]3CCCN3C(=O)CNC(=O)[C@H](CC(=O)OC(C)(C)C)NC(=O)CNC2=O)cc1` [cyclo-(1,6)-Pro-Arg(Tos)-Gly-Asp(O-t-Bu)-Gly-D-Pro], the ring closure, crude yield ([1]; from H-Asp(OtBu)-Gly-dPro-Pro-Arg(Tos)-Gly-OH, 18-membered ring, PPA/NMM, 0.57 mM) was 63%.

Work on `COc1cc(C)c(S(=O)(=O)NC(=N)NCCC[C@@H]2NC(=O)[C@H](Cc3ccccc3)NC(=O)[C@H](CC(=O)OC(C)(C)C)NC(=O)CNC(=O)[C@H](CCCNC(=N)NS(=O)(=O)c3ccc(C)cc3)N(C)C(=O)[C@H](Cc3ccccc3)NC(=O)[C@H](CC(=O)OC(C)(C)C)NC(=O)CNC2=O)c(C)c1C` yielded a ring closure, crude yield ([1]; from H-Asp(OtBu)-Phe-MeArg(Tos)-Gly-Asp(OtBu)-Phe-Arg(Mtr)-Gly-OH, 24-membered ring, PPA/NMM, 0.4 mM) of 95%.

In the case of `COc1cc(C)c(S(=O)(=O)NC(=N)NCCC[C@@H]2NC(=O)[C@@H]3CCCN3C(=O)[C@@H](Cc3ccccc3)NC(=O)CNC(=O)[C@H](CC(=O)OC(C)(C)C)NC(=O)CNC2=O)c(C)c1C` [cyclo(1,6)-Asp(O-t-Bu)-Gly-D-Phe-Arg(Tos)-Gly], the ring closure, crude yield ([1]; from H-Asp(OtBu)-Gly-dPhe-Pro-Arg(Mtr)-Gly-OH, 18-membered ring, PPA/NMM, 0.5 mM) is reported as 84%.

`C[C@H]1NC(=O)[C@H](CO)NC(=O)[C@H](CC(=O)O)NC(=O)CNC(=O)[C@H](CCCNC(=N)N)NC1=O` [Example 28, cyclo-(1,5)-D-Ala-Arg-Gly-Asp-Ser] (cyclo(RGDS[dA])) gave an IC50 (dog platelets) greater than 200 µM.

`Cc1ccc(S(=O)(=O)NC(=N)NCCC[C@@H]2NC(=O)[C@@H](C)NC(=O)[C@H](COCc3ccccc3)NC(=O)[C@H](CC(=O)OCc3ccccc3)NC(=O)CNC2=O)cc1` [cyclo-(1,5)-D-Ala-Arg(Tos)-Gly-Asp(Bzl)-Ser(Bzl)] gave a ring closure, crude yield ([1]; from H-Asp(Bzl)-Ser(Bzl)-dAla-Arg(Tos)-Gly-OH, 15-membered ring, PPA/NMM, 0.4 mM) of 67%.
